One may read the Kd as the equilibrium constant for the complex coming apart. A higher Kd goes with weaker binding.

The text below walks through data of PMC4188581 (PLoS ONE, 2014).

One assay deals with T1, CDK2/Cyclin complex (Homo sapiens, UniProt P24941).
T1 construct: endogenous in cells; host or cells: C81 (HTLV-1-infected T-cell line), size-exclusion fractions 28-31 of whole cell lysate
Nature of the assay: Kinase assay of immunoprecipitated Cyclin E samples with Histone H1. It is filed as biochemical. As to conditions: 10 µM peptide, Histone H1 substrate. The method, then:
(§1) B) Immunoprecipitated Cyclin E samples in the presence of peptides were assessed for kinase activity. Histone H1 (1 µg/reaction) was added to each reaction tube along with 2 µl of (γ-32P) ATP (3000 Ci/mmol). Reactions were incubated at 37°C for 30 min and stopped by the addition Laemmli buffer. The samples were separated on a 4–20% Tris–Glycine gel. Samples were ran on a gel, dried, and exposed to a PhosphorImager cassette and analyzed using Molecular Dynamic’s ImageQuant Software.
The levels of phosphorylation of H1 are shown in the presence of the six designed peptides.
Immunoprecipitated samples were assessed for kinase activity. After the final TNE50+0.1% NP-40 wash, beads were washed with kinase buffer (50 mM HEPES, 10 mM MgCl2, 5 mM MnCl2, 1 mM DTT, 50 mM NaF, 0.2 mM Na3VO4 and one complete tablet of protease cocktail inhibitor/50 ml buffer) to equilibrate the reaction. Histone H1 (1 µg) was added to each reaction tube along with the γ-32P ATP (2 µl at 3000 Ci/mmol). Reactions were incubated at 37°C for 30 min and stopped by the addition of 15 µl Laemmli buffer. The samples were separated by reducing SDS-PAGE on a 4–20% Tris–Glycine gel. Gels were stained with Coomassie blue, destained, and then dried for 2 hours. Following drying, the gels were exposed to a PhosphorImager cassette and analyzed utilizing Molecular Dynamic’s ImageQuant Software.

In another assay the target is T2, CDK2/Cyclin E complex (Homo sapiens, UniProt P24941).
T2 construct: endogenous in cells; host or cells: C81 (HTLV-1-infected T-cell line), size-exclusion fractions 28-31 of whole cell lysate
Nature of the assay: Cyclin E immunoprecipitation and Western blot for CDK2 (complex dissociation). It is filed as biochemical. The note with it: 10 µM peptide, C81 fractionated cell extracts. The method, then: This is discussed below by the kinase activity experiment.
as §1
C81 whole cell lysate (5 mg) was fractionated on a Superose 6 HR 10/30 column (Amersham Biosciences, Piscataway, NJ) in Buffer D (20 mM HEPES (pH 7.9), 0.05 M KCl, 0.2 mM EDTA, 0.5 mM PMSF, 0.05 DTT, and 20% Glycerol). Flow-through was collected at 0.5 ml for 50 fractions.
The pooled C81 extracts (250 µg each) were combined with 10 µM of each respective peptide. Cyclin E antibody (Santa Cruz, sc-198) was added to each reaction tube (10 µl, 2 µg), the reaction mixture was brought up to 500 µl with TNE50+0.1% NP-40 (100 mM Tris, pH 8.0; 50 mM NaCl; 1 mM EDTA, 0.1% Nonidet P-40) and was allowed to incubate while rotating overnight at 4°C. α-IgG was added to extract as a negative control, and an IP was performed in the absence of competing peptide, acting as a positive control. […]
On the technique in general: A western blot detects proteins with antibodies after separation by electrophoresis.

The target of a further assay is CDK2 (Homo sapiens, UniProt P24941). Briefly: Surface Plasmon Resonance (SPR) peptide binding assay. As to conditions: for Ka1 / Ka2 / Kd1 / Kd2: two-state model.

Ends that are not written are not given here.

Turning to `CC(C)C[C@H](NC(=O)[C@H](C)NC(=O)[C@H](C)NC(=O)[C@@H](N)CC(=O)O)C(=O)N[C@H](C(=O)O)[C@@H](C)O` [DAALT, NH2-D-A-A-L-T-OH], on CDK2/Cyclin complex, the “kinase activity (phosphorylation of H1)” value is listed as “clear loss of kinase activity”. Also, at CDK2/Cyclin E complex, the “dissociation of CDK2 from the CDK2/Cyclin complex” value is listed as “dissociation of CDK2 from the CDK2/Cyclin complex”. In addition, the “mechanism of binding (SPR response curve)” value at CDK2 is “fast binding and fast dissociation”. For the same compound, at CDK2 (with 60 µM ATP), the Ka1 stood at 612.9 ± 13.0 M⁻¹ s⁻¹, the Ka2 was 34.6±1.0 E-3 1/Ms, the Kd1 is reported as 101.2±4.3 E-3 1/s and the Kd2 is recorded as 10.1±0.1 E-3 1/s. At CDK2 (without ATP), the Ka1 stood at 434.1 ± 6.6 M⁻¹ s⁻¹, the Ka2 is 14.1±0.4 E-4 1/Ms, the Kd1 is recorded as 23.2±0.4 E-3 1/s and the Kd2 is recorded as 1.3±0.6 E-5 1/s.

`CC(C)C[C@H](NC(=O)[C@H](C)NC(=O)[C@H](C)NC(=O)[C@@H](N)Cc1ccc(O)cc1)C(=O)N[C@@H](CCC(N)=O)C(=O)O` [YAALQ, NH2-Y-A-A-L-Q-OH]: the “kinase activity (phosphorylation of H1)” value on CDK2/Cyclin complex is on record as “clear loss of kinase activity”. On CDK2/Cyclin E complex, the “dissociation of CDK2 from the CDK2/Cyclin complex” value is reported as “weak complex disassociation”. Also, the “mechanism of binding (SPR response curve)” value on CDK2 is “fast binding and fast dissociation”. For the same compound, on CDK2 (with 60 µM ATP), the Ka2 is 12.3±0.3 E-3 1/Ms, the Kd1 was 53.9±1.4 E-3 1/s and the Kd2 is reported as 1.6±0.1 E-3 1/s. At CDK2 (without ATP), the Ka2 is on record as 9.0±0.3 E-3 1/Ms, the Kd1 is recorded as 84.0±2.7 E-3 1/s and the Kd2 was 2.2±0.1 E-3 1/s.

LAALS [LAALS, reference compound]: the affinity on CDK2 (without ATP), expressed as Kd, was 8 µM. That is a single-digit micromolar value.
